Experimental data as given in US10159265B2, “Feed composition for reducing ruminant methanogenesis” (priority 2012, dated 2018).
Marks after values point to notes of the source that are not given here.

Key:
[1] = system: "in vitro" ruminal fluid culture; assay: Lactate concentration in "in vitro" ruminal fluid culture; type: cell-based, calves; conditions: 12 hours of incubation
[2] = system: "in vitro" ruminal fluid cultures; assay: Ammonia (N-NH3) concentration in "in vitro" ruminal fluid cultures; type: cell-based, calves; conditions: for N-NH3 concentration, average (M): average over incubation times
Streptococcus bovis = assay: qPCR relative quantification of Streptococcus bovis; type: cell-based; conditions: 12 hours of incubation
Selenomonas ruminantium = assay: qPCR relative quantification of Selenomonas ruminantium; type: cell-based; conditions: 12 hours of incubation
Megasphaera elsdenii = assay: qPCR relative quantification of Megasphaera elsdenii; type: cell-based; conditions: 12 hours of incubation
[3] = system: "in vitro" ruminal fluid cultures; assay: Ammonia (N-NH3) concentration in "in vitro" ruminal fluid cultures; type: cell-based, calves; conditions: 72 h
[4] = system: "in vitro" rumen fluid culture; assay: Biogas production in "in vitro" rumen fluid culture (pressure meter); type: cell-based, calves; design: Average biogas production / Cumulative biogas production / Biogas production: unit not given here; conditions: for Average biogas production: average over doses and incubation times
[5] = system: methanogenic (archea) populations; assay: Methane production in "in vitro" rumen fluid culture; type: cell-based, calves; design: Average methane production / Accumulated methane production / Methane production / Cumulative methane production: unit not given here
Summary of the method: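 Rumen fluid from cannulated calves on a 90:10 concentrate ration incubated anaerobically at 39° C with flavonoids, 600 mg concentrate and 60 mg barley straw substrate in 10 ml rumen fluid plus 40 ml incubation medium. Gas pressure read at 2–48 h; triplicates in two batches, with methane share of total biogas assessed.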

[6] = system: "in vitro" ruminal fluid cultures; assay: Volatile fatty acid concentration and molar proportions in "in vitro" ruminal fluid cultures; type: cell-based, calves; conditions: for % Acetate, molar ratio, average (μ) / % Butyrate, molar ratio, average (μ) / % Propionate, molar ratio, average (M) / VFA concentration, average (μ): average over incubation times
ruminal bacteria = assay: Bacterial DNA concentration by qPCR; type: cell-based, calves; conditions: 12 hours of incubation
[7] = Exp 1, average over doses and incubation times
[8] = Exp 1, average over doses and incubation times, listed as neohesperidin

`COc1ccc([C@@H]2CC(=O)c3c(O)cc(O[C@@H]4O[C@H](CO)[C@@H](O)[C@H](O)[C@H]4O[C@@H]4O[C@@H](C)[C@H](O)[C@@H](O)[C@H]4O)cc3O2)cc1O` [Neohesperidin, neohesperidin] was tested, and the Lactate [1] was 45.8 mg/L, the Lactate ([1]; listed as neohesperidin) was “tended to moderate the recorded increase” and the N-NH3 concentration ([2]; 0 h (initial constant value)) was 149.99 mg/L. The N-NH3 concentration ([2]; 12 h) was 168.38 mg/L, the “N-NH3 concentration, average (M)” value [2] was 219.18 mg/L and the “Relative Quantification 2^(ΔΔCt) S. bovis” value (Streptococcus bovis) was 0.25. For the same compound, the “Relative Quantification 2^(ΔΔCt) S. ruminantium” value (Selenomonas ruminantium) was 0.53, the “Relative Quantification 2^(ΔΔCt) M. elsdenii” value (Megasphaera elsdenii) was 1.35 ^c and the “Relative Quantification 2^(ΔΔCt) M. elsdenii” value (Megasphaera elsdenii; listed as neohesperidin) was “improved”. For the same compound, the N-NH3 concentration [3] was 339.17 mg/L, the Cumulative biogas production ([4]; Exp 1, 12 h incubation) was 175.93 and the Cumulative biogas production ([4]; Exp 1, 24 h incubation) was 217.84. The Cumulative biogas production ([4]; Exp 1, 48 h incubation) was 253.99, the Cumulative biogas production ([4]; Exp 1, 72 h incubation) was 275.06 and the Average biogas production ([4]; Exp 1) was 230.71^e. The Average biogas production ([4]; Exp 1, listed as neohesperidin) was 230.7, the Biogas production ([4]; Exp 1, dose 1, 0.2 g/kg DM) was 238.13 and the Biogas production ([4]; Exp 1, dose 2, 0.5 g/kg DM) was 223.28. For the same compound, the “Dosage effect on gas production” value ([4]; Exp 1, inclusion levels 200 and 500 mg/kg) was “more pronounced dosage effect”, the Average biogas production ([4]; Exp 2 (second trial)) was 268.16^c and the Cumulative biogas production ([4]; Exp 2, 12 h) was 215.60. The Cumulative biogas production ([4]; Exp 2, 24 h) was 256.18, the Cumulative biogas production ([4]; Exp 2, 48 h) was 292.28 and the Cumulative biogas production ([4]; Exp 2, 72 h) was 308.57. The Biogas production ([4]; Exp 2, dose 1, 0.2 g/kg DM) was 267.1, the Biogas production ([4]; Exp 2, dose 2, 0.5 g/kg DM) was 269.2 and the “Dosage effect on methane production” value ([5]; Exp 1, 200 vs 500 mg/kg DM) was “more reduced by increasing the dose”. The Accumulated methane production ([5]; Exp 1, 12 h) was 18.02, the “Proportion of methane in the produced biogas” value (“Proportion of methane” below) ([5]; Exp 1, 12 h) was 10.21 and the Accumulated methane production ([5]; Exp 1, 24 h) was 23.15. The “Proportion of methane” value ([5]; Exp 1, 24 h) was 12.34, the Accumulated methane production ([5]; Exp 1, 48 h) was 28.84 and the “Proportion of methane” value ([5]; Exp 1, 48 h) was 15.91. The Accumulated methane production ([5]; Exp 1, 72 h) was 32.18, the “Proportion of methane” value ([5]; Exp 1, 72 h) was 16.20 and the “Proportion of methane” value [5, 7] was 13.66^d. The Average methane production [5, 8] was “decreased”, the “Proportion of methane” value [5, 8] was 13.70 and the Methane production ([5]; Exp 1, dose 1, 0.2 g/kg DM) was 27.63. The “Proportion of methane” value ([5]; Exp 1, dose 1, 0.2 g/kg DM) was 13.98, the Methane production ([5]; Exp 1, dose 2, 0.5 g/kg DM) was 23.46 and the “Proportion of methane” value ([5]; Exp 1, dose 2, 0.5 g/kg DM) was 13.35. The Average methane production ([5]; Exp 2 (second trial), average over doses and incubation times) was 30.44^b, the Cumulative methane production ([5]; Exp 2, 12 h) was 22.52 and the Cumulative methane production ([5]; Exp 2, 24 h) was 27.98. For the same compound, the Cumulative methane production ([5]; Exp 2, 48 h) was 34.31, the Cumulative methane production ([5]; Exp 2, 72 h) was 36.95 and the Methane production ([5]; Exp 2, dose 1, 0.2 g/kg DM) was 30.1. For the same compound, the Methane production ([5]; Exp 2, dose 2, 0.5 g/kg DM) was 30.8, the “% Acetate, molar ratio” value ([6]; 0 h) was 62.51 mol/100 mol and the “% Butyrate, molar ratio” value ([6]; 0 h) was 9.07 mol/100 mol. For the same compound, the “% Propionate, molar ratio” value ([6]; 0 h) was 20.03 mol/100 mol, the “A/P rate (acetate/propionate)” value ([6]; 0 h) was 3.12 and the VFA concentration ([6]; 0 h (initial constant value)) was 13.78 mmol/L. For the same compound, the “% Acetate, molar ratio” value ([6]; 12 h) was 54.68 mol/100 mol, the “% Butyrate, molar ratio” value ([6]; 12 h) was 9.68 mol/100 mol and the “% Propionate, molar ratio” value ([6]; 12 h) was 30.05 mol/100 mol. The “A/P rate (acetate/propionate)” value ([6]; 12 h) was 1.82, the VFA concentration ([6]; 12 h) was 36.97 mmol/L and the “% Acetate, molar ratio” value ([6]; 72 h) was 55.68 mol/100 mol. For the same compound, the “% Butyrate, molar ratio” value ([6]; 72 h) was 9.96 mol/100 mol, the “% Propionate, molar ratio” value ([6]; 72 h) was 26.91 mol/100 mol and the “A/P rate (acetate/propionate)” value ([6]; 72 h) was 2.07. The VFA concentration ([6]; 72 h) was 53.04 mmol/L, the “% Acetate, molar ratio, average (μ)” value [6] was 57.62 mol/100 mol and the “% Butyrate, molar ratio, average (μ)” value [6] was 9.57 ^a mol/100 mol. For the same compound, the “% Propionate, molar ratio, average (M)” value [6] was 25.66 ^b mol/100 mol, the “VFA concentration, average (μ)” value [6] was 34.60 mmol/L and the “Bacteria DNA” value (ruminal bacteria) was 23.93 ^ab μg/ml. For the same compound, the “Bacteria DNA” value (ruminal bacteria; listed as neohesperidin) was “increase did only reach statistical significance”.

In the case of `COc1ccc([C@@H]2CC(=O)c3c(O)cc(O[C@@H]4O[C@H](CO)[C@@H](O)[C@H](O)[C@H]4O[C@@H]4O[C@@H](C)[C@H](O)[C@@H](O)[C@H]4O)cc3O2)cc1` [Poncirin, poncirin], the Lactate [1] is reported as 87.5 mg/L, the N-NH3 concentration ([2]; 0 h (initial constant value)) is reported as 149.99 mg/L and the N-NH3 concentration ([2]; 12 h) is reported as 159.33 mg/L. For the same compound, the “N-NH3 concentration, average (M)” value [2] was 209.16 mg/L, the “Relative Quantification 2^(ΔΔCt) S. bovis” value (Streptococcus bovis) was 0.44 and the “Relative Quantification 2^(ΔΔCt) S. ruminantium” value (Selenomonas ruminantium) was 0.68. The “Relative Quantification 2^(ΔΔCt) M. elsdenii” value (Megasphaera elsdenii) was 0.98 ^ab, the N-NH3 concentration [3] was 318.15 mg/L and the Cumulative biogas production ([4]; Exp 1, 12 h incubation) was 180.63. For the same compound, the Cumulative biogas production ([4]; Exp 1, 24 h incubation) was 224.90, the Cumulative biogas production ([4]; Exp 1, 48 h incubation) was 262.00 and the Cumulative biogas production ([4]; Exp 1, 72 h incubation) was 284.28. For the same compound, the Average biogas production ([4]; Exp 1) was 237.95^cde, the Average biogas production ([4]; Exp 1, listed as poncirin) was 238 and the Biogas production ([4]; Exp 1, dose 1, 0.2 g/kg DM) was 234.43. The Biogas production ([4]; Exp 1, dose 2, 0.5 g/kg DM) was 241.48, the Accumulated methane production ([5]; Exp 1, 12 h) was 19.19 and the “Proportion of methane” value ([5]; Exp 1, 12 h) was 10.62. The Accumulated methane production ([5]; Exp 1, 24 h) was 24.43, the “Proportion of methane” value ([5]; Exp 1, 24 h) was 11.94 and the Accumulated methane production ([5]; Exp 1, 48 h) was 30.50. The “Proportion of methane” value ([5]; Exp 1, 48 h) was 16.54, the Accumulated methane production ([5]; Exp 1, 72 h) was 34.07 and the “Proportion of methane” value ([5]; Exp 1, 72 h) was 16.34. The Average methane production [5, 7] was 27.04^de, the “Proportion of methane” value [5, 7] was 13.86^cd and the Average methane production ([5]; Exp 1, average over doses and incubation times, listed as poncirin) was “decreased”. For the same compound, the Methane production ([5]; Exp 1, dose 1, 0.2 g/kg DM) was 26.61, the “Proportion of methane” value ([5]; Exp 1, dose 1, 0.2 g/kg DM) was 13.92 and the Methane production ([5]; Exp 1, dose 2, 0.5 g/kg DM) was 27.47. For the same compound, the “Proportion of methane” value ([5]; Exp 1, dose 2, 0.5 g/kg DM) was 13.80, the “% Acetate, molar ratio” value ([6]; 0 h) was 62.51 mol/100 mol and the “% Butyrate, molar ratio” value ([6]; 0 h) was 9.07 mol/100 mol. The “% Propionate, molar ratio” value ([6]; 0 h) was 20.03 mol/100 mol, the “A/P rate (acetate/propionate)” value ([6]; 0 h) was 3.12 and the VFA concentration ([6]; 0 h (initial constant value)) was 13.78 mmol/L. For the same compound, the “% Acetate, molar ratio” value ([6]; 12 h) was 55.44 mol/100 mol, the “% Butyrate, molar ratio” value ([6]; 12 h) was 9.61 mol/100 mol and the “% Propionate, molar ratio” value ([6]; 12 h) was 29.52 mol/100 mol. For the same compound, the “A/P rate (acetate/propionate)” value ([6]; 12 h) was 1.88, the VFA concentration ([6]; 12 h) was 36.98 mmol/L and the “% Acetate, molar ratio” value ([6]; 72 h) was 55.36 mol/100 mol. For the same compound, the “% Butyrate, molar ratio” value ([6]; 72 h) was 10.20 mol/100 mol, the “% Propionate, molar ratio” value ([6]; 72 h) was 26.96 mol/100 mol and the “A/P rate (acetate/propionate)” value ([6]; 72 h) was 2.05. For the same compound, the VFA concentration ([6]; 72 h) was 51.87 mmol/L, the “% Acetate, molar ratio, average (μ)” value [6] was 57.77 mol/100 mol and the “% Butyrate, molar ratio, average (μ)” value [6] was 9.63 ^a mol/100 mol. For the same compound, the “% Propionate, molar ratio, average (M)” value [6] was 25.51 ^b mol/100 mol, the “VFA concentration, average (μ)” value [6] was 34.21 mmol/L and the “% Propionate, molar ratio, average (M)” value ([6]; listed as poncirin) was “improved”. For the same compound, the “Bacteria DNA” value (ruminal bacteria) was 10.12 ^a μg/ml.
